Assay results reported in patent US10287298B2, “Nitrogen-containing analogs of salinomycin, synthesis and use against cancer stem cells and malaria” (Centre National de la Recherche Scientifique (CNRS), priority 2014, dated 2019).
Read-outs that look alike come from different tables or passages of the source.

What was measured:
HMLER CD24− cells [1] = test: Cell viability assay (CellTiter-Blue), IC50 assessment; format: cell-based, Human; settings: for IC50: Homo sapiens, read-out: IC50 CD24−; for activity against CD24 cells compared with salinomycine: comparison of the IC50 results
Protocol: (§1) FIG. 1 represents viability of HMLER CD24− cells (full line) and HMLER CD24+ cells (dotted line) at different concentration of salinomycine (1A), AM5 […] or AM13 (1D).
(§2) Cell viability assay was carried out by plating 1000 cells per well in 96-well plates. NAC (2 mM, A9165 Sigma) or DFO (1 mM) were pretreated 2 hours prior to the compound treatment. CellTiter-Blue® Reagent (Promega; G3582) (20 μl/well) was added after 24, 48, or 72 hours treatment and cells were incubated for 1 hour before recording fluorescence (560(20)Ex/590(10)Em) using a Perkin Elmer Wallac 1420 Victor2 Microplate Reader.

HMLER CD24+ cells = test: as above; format: cell-based; settings: Homo sapiens, read-out: IC50 CD24+
Protocol: as §1, §2

HMLER CD24− cells [2] = test: Cell proliferation and formation of mammospheres; format: cell-based, Human
From the text: FIG. 2 is a representative phase contrast photomicrographs of mammospheres formed after 11 days in the absence of any added compound (Control) or in the presence of a defined amount of salinomycine, AM5, AM9 or AM13. […] The size of the mammospheres is correlated with progenitor cell proliferation, whereas the number of mammospheres formed after serial passages at clonal density is correlated with the self-renewal capacity of primitive Cancer Stem Cells. […]
FIG. 9 represents images of the third generation of mammospheres formed from individual HMLER CD24low cells treated during 7 days with the indicated drug. The size of the mammospheres is correlated with progenitor cell proliferation capacity, whereas the number of mammospheres formed after serial passages at clonal density is correlated with the self-renewal capacity of primitive Cancer Stem Cells.
AM5, AM9, AM13 and salinomycine were assessed for their capability to inhibit cell proliferation and formation of mammospheres. […]
AM5 and AM23 and salinomycine were assessed for their capability to inhibit cell proliferation and formation of mammospheres.

[3] = HMLER CD24− cells, cell viability
[4] = HMLER CD24+ cells, cell viability

Row | Compound | IC50 (HMLER CD24− cells [1]; [3]) [µM] | IC50 (HMLER CD24+ cells; [4]) [µM] | activity against CD24 cells compared with salinomycine (HMLER CD24− cells [1]) | further results
1 | CCC(C(=O)O)[C@H]1CC[C@H](C)C([C@@H](C)[C@H](O)[C@H](C)C(=O)[C@H](CC)[C@H]2O[C@]3(C=CC(=O)[C@]4(CC[C@@](C)([C@H]5CC[C@](O)(CC)[C@H](C)O5)O4)O3)[C@H](C)C[C@@H]2C)O1 (stereo partly drawn) [AM6] |  |  |  | IC50 (HMLER CD24− cells [1]): 6.18 µM; IC50 (HMLER CD24+ cells): 12.8 µM
2 | CCC(C(=O)OC)[C@H]1CC[C@H](C)C([C@@H](C)[C@H](O)[C@H](C)C(=O)[C@H](CC)[C@H]2O[C@]3(C=C[C@@H](OC(C)=O)[C@]4(CC[C@@](C)([C@H]5CC[C@](O)(CC)[C@H](C)O5)O4)O3)[C@H](C)C[C@@H]2C)O1 (stereo partly drawn) [AM7] | 7.25 | 12.5 |  | 
3 | CCC(C(=O)O)[C@H]1CC[C@H](C)C([C@@H](C)[C@H](O)[C@H](C)C(=O)[C@H](CC)[C@H]2O[C@]3(C=C[C@@H](NOCc4ccccc4)[C@]4(CC[C@@](C)([C@H]5CC[C@](O)(CC)[C@H](C)O5)O4)O3)[C@H](C)C[C@@H]2C)O1 (stereo partly drawn) [AM8] | 1.02 | 8.06 | significantly improved activity | 
4 | C#CCN[C@@H]1C=C[C@]2(O[C@H]([C@@H](CC)C(=O)[C@@H](C)[C@@H](O)[C@H](C)C3O[C@@H](C(CC)C(=O)OC)CC[C@@H]3C)[C@@H](C)C[C@H]2C)O[C@@]12CC[C@@](C)([C@H]1CC[C@](O)(CC)[C@H](C)O1)O2 (stereo partly drawn) [AM9, Me-Sal-propargylamine] | 11.8 | 22 | lower efficiency than salinomycine | effect against tumorsphere formation / CSC maintenance (HMLER CD24− cells [2]): ineffective; inhibition of cell proliferation (HMLER CD24− cells [2]; at 500 nM): did not inhibit cell proliferation
5 | C#CCN[C@@H]1C=C[C@]2(O[C@H]([C@@H](CC)C(=O)[C@@H](C)[C@@H](O)[C@H](C)C3O[C@@H](C(CC)C(=O)OCC#C)CC[C@@H]3C)[C@@H](C)C[C@H]2C)O[C@@]12CC[C@@](C)([C@H]1CC[C@](O)(CC)[C@H](C)O1)O2 (stereo partly drawn) [AM10] | 10 | 19.7 | lower efficiency than salinomycine | 
6 | CCC(C(=O)O)[C@H]1CC[C@H](C)C([C@@H](C)[C@H](O)[C@H](C)C(=O)[C@H](CC)[C@H]2O[C@]3(C=C[C@@H](NCc4ccccc4)[C@]4(CC[C@@](C)([C@H]5CC[C@](O)(CC)[C@H](C)O5)O4)O3)[C@H](C)C[C@@H]2C)O1 (stereo partly drawn) [AM11] | 0.8 | 6.7 | significantly improved activity | 
7 | CCCCCCN[C@@H]1C=C[C@]2(O[C@H]([C@@H](CC)C(=O)[C@@H](C)[C@@H](O)[C@H](C)C3O[C@@H](C(CC)C(=O)O)CC[C@@H]3C)[C@@H](C)C[C@H]2C)O[C@@]12CC[C@@](C)([C@H]1CC[C@](O)(CC)[C@H](C)O1)O2 (stereo partly drawn) [AM12] | 1.79 | 6.92 | significantly improved activity | 
8 | CCCCCCCCCCCCN[C@@H]1C=C[C@]2(O[C@H]([C@@H](CC)C(=O)[C@@H](C)[C@@H](O)[C@H](C)C3O[C@@H](C(CC)C(=O)O)CC[C@@H]3C)[C@@H](C)C[C@H]2C)O[C@@]12CC[C@@](C)([C@H]1CC[C@](O)(CC)[C@H](C)O1)O2 (stereo partly drawn) [AM13, Sal-Dodecylamine] | 0.0727 | 3.19 | significantly improved activity | inhibition of cell proliferation, efficacy in comparison with salinomycine (HMLER CD24− cells [2]; at 30 nM): ten-fold improved efficacy; number and size of mammosphere (HMLER CD24− cells [2]; mammospheres after 11 days, low nanomolar concentrations): reduced the number and the size of mammosphere
9 | C#CCCCN[C@@H]1C=C[C@]2(O[C@H]([C@@H](CC)C(=O)[C@@H](C)[C@@H](O)[C@H](C)C3O[C@@H](C(CC)C(=O)O)CC[C@@H]3C)[C@@H](C)C[C@H]2C)O[C@@]12CC[C@@](C)([C@H]1CC[C@](O)(CC)[C@H](C)O1)O2 (stereo partly drawn) [AM16] | 0.3 | 1.17 |  | 
10 | C#CCN[C@H]1C=C[C@]2(O[C@H]([C@@H](CC)C(=O)[C@@H](C)[C@@H](O)[C@H](C)C3O[C@@H](C(CC)C(=O)O)CC[C@@H]3C)[C@@H](C)C[C@H]2C)O[C@@]12CC[C@@](C)([C@H]1CC[C@](O)(CC)[C@H](C)O1)O2 (stereo partly drawn) [AM17] | 0.1 | 2 |  | 
11 | CCC(C(=O)NO)[C@H]1CC[C@H](C)C([C@@H](C)[C@H](O)[C@H](C)C(=O)[C@H](CC)[C@H]2O[C@]3(C=C/C(=N\O)[C@]4(CC[C@@](C)([C@H]5CC[C@](O)(CC)[C@H](C)O5)O4)O3)[C@H](C)C[C@@H]2C)O1 (stereo partly drawn) [AM18] | 0.1 | 2.5 |  | 
12 | CCCN[C@@H]1C=C[C@]2(O[C@H]([C@@H](CC)C(=O)[C@@H](C)[C@@H](O)[C@H](C)C3O[C@@H](C(CC)C(=O)O)CC[C@@H]3C)[C@@H](C)C[C@H]2C)O[C@@]12CC[C@@](C)([C@H]1CC[C@](O)(CC)[C@H](C)O1)O2 (stereo partly drawn) [AM21] | 0.34 | 6.5 |  | 
13 | C=CCN[C@@H]1C=C[C@]2(O[C@H]([C@@H](CC)C(=O)[C@@H](C)[C@@H](O)[C@H](C)C3O[C@@H](C(CC)C(=O)O)CC[C@@H]3C)[C@@H](C)C[C@H]2C)O[C@@]12CC[C@@](C)([C@H]1CC[C@](O)(CC)[C@H](C)O1)O2 (stereo partly drawn) [AM22] | 0.3 | 1.53 |  | 
14 | CCC(C(=O)O)[C@H]1CC[C@H](C)C([C@@H](C)[C@H](O)[C@H](C)C(=O)[C@H](CC)[C@H]2O[C@]3(C=C[C@@H](NC4CCC4)[C@]4(CC[C@@](C)([C@H]5CC[C@](O)(CC)[C@H](C)O5)O4)O3)[C@H](C)C[C@@H]2C)O1 (stereo partly drawn) [AM24] | 0.107 | 1.4 |  | 
15 | CCC(C(=O)O)[C@H]1CC[C@H](C)C([C@@H](C)[C@H](O)[C@H](C)C(=O)[C@H](CC)[C@H]2O[C@]3(C=C[C@@H](NC4CCCC4)[C@]4(CC[C@@](C)([C@H]5CC[C@](O)(CC)[C@H](C)O5)O4)O3)[C@H](C)C[C@@H]2C)O1 (stereo partly drawn) [AM25] | 0.108 | 1.36 |  | 
16 | CCC(C(=O)O)[C@H]1CC[C@H](C)C([C@@H](C)[C@H](O)[C@H](C)C(=O)[C@H](CC)[C@H]2O[C@]3(CC[C@@H](NCC(C)C)[C@]4(CC[C@@](C)([C@H]5CC[C@](O)(CC)[C@H](C)O5)O4)O3)[C@H](C)C[C@@H]2C)O1 (stereo partly drawn) [AM26] | 1.15 | 10.1 |  | 
17 | CCC(C(=O)NO)[C@H]1CC[C@H](C)C([C@@H](C)[C@H](O)[C@H](C)C(=O)[C@H](CC)[C@H]2O[C@]3(C=C[C@@H](NC4CC4)[C@]4(CC[C@@](C)([C@H]5CC[C@](O)(CC)[C@H](C)O5)O4)O3)[C@H](C)C[C@@H]2C)O1 (stereo partly drawn) [AM28] | 6.43 | 5.83 |  | 
18 | CC(=O)O[C@H]1C(=O)[C@@]2(C)[C@H]([C@H](OC(=O)c3ccccc3)[C@]3(O)C[C@H](OC(=O)[C@H](O)[C@@H](NC(=O)c4ccccc4)c4ccccc4)C(C)=C1C3(C)C)[C@]1(OC(C)=O)CO[C@@H]1C[C@@H]2O [paclitaxel, reference compound] |  |  |  | effect against tumorsphere formation / CSC maintenance (HMLER CD24− cells [2]): poorly effective
